{
  "source": "patent US6087121A",
  "about": "“Chemiluminescent detection of heme proteins in biological samples” (Mayo Foundation for Medical Education and Research, priority 1999, dated 2000)",
  "key": {"Mb": {"tested_on": "Mb", "assay": "S/N ratios of different chemiluminescent substrates with Mb", "format": "biochemical, human", "conditions": "signal integrated over first five seconds", "method": "(§1) Centricon ultrafiltration filters were obtained from Amicon (Daven, Mass.). Polystyrene tubes (5.0 mL volume, 75×12 mm) used for the assay were manufactured by Sarstedt (Arlington Heights, Ill.). The chemiluminescent substrate, 7-dimethylamino-naphthalene-1,2-dicarbonic acid-hydrazide (7-DNH) was purchased from Boehringer Mannheim (Indianapolis, Ind.). PS-1 acridan substrate (solution A and solution B) was obtained from Lumigen Inc. (Southfield, Mich.). […] Tween-20 and Sodium Chloride were purchased from Fisher Scientific (Fair Lawn, N.J.). General laboratory chemicals such as, boric acid, sodium acetate, Trizma base, HEPES, hydrogen peroxide (H2 O2) solution (30.0%), human hemoglobin, catalase, 6-amino-2,3-dihydro-1,4-phthallazinedione (4-aminophthalhydrazide), N-(4-Aminobutyl)-N-ethyl-isoluminol, Triton X-100, (3-[3-cholamidopropyl)dimethylammonio]-1-propanesulfonate) (CHAPS), hydrogen disulfite, methimazole, ofloxacin, ascorbic acid, ammonium chloride, EDTA, Hb, bilirubin, and lactoperoxidase (LPO) were purchased from Sigma Chemical Company (St. Louis, Mo.). Human heart myoglobin and myeloperoxidase were obtained from Calbiochem (La Jolla, Calif.) Thyroid peroxidase (TPO) was purchased from O.E.M. Concepts, Inc. (Toms River, N.J.). Eosinophil peroxidase was provided by Dr. Greipp (Mayo Clinic). Fresh EDTA anticoagulated blood was collected from donors showing no signs of sickness and washed with physiological saline to isolate RBC.\n(§2) Fresh urine specimens were obtained in routine commercial collection vessels. The specimens were, either, analyzed immediately or stored at 4° C. until analysis. The urine samples were prepared for analysis by adding CTAC to produce a 0.1% solution, unless otherwise noted, in order to lyse the erythrocytes, thereby releasing hemoglobin. The assays were performed in a 75×12 mm polystyrene tube. The assay solutions were prepared by adding to each tube 294 μL of high ionic strength buffer, 5.0 μL of the prepared urine samples or standards, and […] of substrate (0.4 mM solution of 7-DNH), unless otherwise noted. […] The standard curve was obtained by plotting chemiluminescence emission in Relative Light Units (RLU) versus Hb concentration (μg/mL) or number of RBCs (#RBC/high power field (hpf)). Cell counts were determined with the Yellow Iris® instrument and confirmed by a manual hemocytometer count.\nThe substrate (7-DNH) and the ultrafiltered urine were prepared as described above. The kinetics of chemiluminescence was determined by monitoring the chemiluminescence signal over a 20 second time period following addition of the substrate (7-DNH) to ultrafiltered urine. Measurements were performed either in the presence or absence of Hb. […]"}, "Hb [1]": {"tested_on": "Hb", "assay": "Chemiluminescence emission kinetics of 7-DNH with Hb", "format": "biochemical, human", "conditions": "Hb in ultrafiltered urine, after H2O2", "method": "(§3) The substrate (7-DNH) and the ultrafiltered urine were prepared as described above. The kinetics of chemiluminescence was determined by monitoring the chemiluminescence signal over a 20 second time period following addition of the substrate (7-DNH) to ultrafiltered urine. Measurements were performed either in the presence or absence of Hb. Experiments performed in the absence of Hb provide background measurements in relative light units (RLU)."}, "Hb [2]": {"tested_on": "Hb", "assay": "S/N ratios of different chemiluminescent substrates with Hb", "format": "biochemical, human", "method": "as §1, §2, §3"}, "leukocytes": {"tested_on": "leukocytes", "assay": "Stability of leukocytes in urine with ofloxacin", "format": "cell-based", "conditions": "100 μg/ml ofloxacin, 4° C.", "method": "Intra- and inter-assay imprecision was performed for MPO standards, WBC standards and 3 urine samples. Intra- and inter-assay imprecision tests were performed as described for the Hb assay in Example 7. The effect of time on the stability of enzyme activity in the leukocytes was examined. The effect of adding a quinoline antimicrobial agent, ofloxacin, was also studied with respect to its stabilization of the leukocytes.\nStability of leukocytes in the urine over time was improved by storing the urine samples at 4° C. The addition of 100 μg/ml of ofloxacin kept the leukocytes intact up to 20 hours later when the urines were maintained at 4° C. (FIG. 14)."}, "MPO [3]": {"target": "T1, MPO (Homo sapiens, UniProt P05164)", "T1 sequence (P05164 49-745)": "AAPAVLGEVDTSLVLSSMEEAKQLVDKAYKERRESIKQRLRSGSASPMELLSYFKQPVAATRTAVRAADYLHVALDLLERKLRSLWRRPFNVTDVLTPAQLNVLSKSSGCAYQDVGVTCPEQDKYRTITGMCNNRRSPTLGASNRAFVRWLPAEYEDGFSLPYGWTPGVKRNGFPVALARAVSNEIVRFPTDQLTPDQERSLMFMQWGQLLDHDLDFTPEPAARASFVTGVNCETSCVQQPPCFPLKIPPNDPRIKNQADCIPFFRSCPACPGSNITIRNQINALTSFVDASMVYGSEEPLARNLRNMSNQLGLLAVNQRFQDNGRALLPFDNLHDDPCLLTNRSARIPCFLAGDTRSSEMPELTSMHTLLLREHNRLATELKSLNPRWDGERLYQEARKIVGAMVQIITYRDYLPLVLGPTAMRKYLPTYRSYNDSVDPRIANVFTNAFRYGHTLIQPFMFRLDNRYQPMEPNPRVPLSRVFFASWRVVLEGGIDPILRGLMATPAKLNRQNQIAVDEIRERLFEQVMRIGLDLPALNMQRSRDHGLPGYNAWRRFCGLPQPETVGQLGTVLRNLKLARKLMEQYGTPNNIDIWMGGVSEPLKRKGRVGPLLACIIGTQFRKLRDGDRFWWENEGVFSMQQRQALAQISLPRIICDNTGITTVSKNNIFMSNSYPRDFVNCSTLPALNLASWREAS", "assay": "Effects of potential interfering substances in WBC (MPO, PS-1) assay", "format": "biochemical", "conditions": "Hb <10 μg/mL"}, "MPO [4]": {"target": "T1, MPO", "assay": "Effects of potential interfering substances in WBC (MPO, PS-1) assay", "format": "biochemical", "conditions": "level giving signal equal to 5 WBC/high power field; highest tested: hemoglobin 250, myoglobin 200 μg/mL", "method": "Urine samples were diluted 1:4 into distilled water to minimize inhibitory effects observed with hyperosmolal urines. Two μL of diluted urine were added to 12×75 mm polystyrene test tube containing 50 μL of the PS-1 solution. The tubes were incubated at 37° C. for 5 minutes. MPO activity was determined by chemiluminescence emission using a Turner TD-20e luminometer maintained at 37° C. Leukocyte counting was performed manually by using a hemacytometer chamber (Kova Glasstic slide, Hycor, Irvine, Calif.) on each urine sample to determine the number of cells/mL.\nSeveral possible interfering substances were added to urine and tested for inhibitory effects. Several common medications were also tested for potential inhibitory effects. […] Hb at concentrations of >10 μg/mL and Mb at concentrations >2 μg/mL were detected by the PS-1 substrate as the chemiluminescence emission was above the normal urine background. Samples grossly populated with bacteria caused slight inhibition of the MPO activity. Urine samples may contain many epithelial cells, casts, crystals, and numerous artifacts but none of these appear to interfere with the chemiluminescence emission from MPO."}, "Hb [5]": {"tested_on": "Hb", "assay": "Performance characteristics of Hb assay (precision, linearity, recovery, stability)", "design": "species or system human", "conditions": "with detergent and substrate", "method": "Ultrafiltered urine was prepared from a pool of fresh urine specimens by ultrafiltration through Centriprep-10 at 3,000×g in a Beckman J2-HC centrifuge (Beckman Instruments, Calif.). This treatment separates all biomolecules with molecular weight greater than 10,000 daltons so that the ultrafiltered urine is devoid of Hemoglobin (Hb) and Myoglobin (Mb). Stock standards were prepared with the ultrafiltrate containing known quantities of, either purified Hb or washed, packed RBCS. A cell count of the stock RBC standard was determined by the Yellow IRIS® Automated Imaging System (Independent Research Imaging Systems, Chatsworth, Calif.). Cells in urine are imaged under laminar flow conditions. Up to 80 images of cells are captured using a high speed charged-coupled device camera. Cell images are then identified and quantified. […] All chemiluminescence measurements were determined using a Berthold AutoLumat, LB 953 (EG&G Berthold, Aliquippa, Pa.).\nFresh urine specimens were obtained in routine commercial collection vessels. The specimens were, either, analyzed immediately or stored at 4° C. until analysis. […] The emission of light was measured over five seconds following automatic injection of 300 μL of 5% hydrogen peroxide (pH 3.25). […] Cell counts were determined with the Yellow Iris® instrument and confirmed by a manual hemocytometer count. […]"}, "RBC": {"tested_on": "RBC", "assay": "Effectiveness of lysing agents in RBC assay", "format": "cell-based, human", "conditions": "saponin 0.2 mg/mL, 30 second time period; mellitin 0.85 mg/mL; CTAC 0.1%", "method": "as §2"}},
  "data": [
    {"molecule": "CN(C)c1ccc2ccc3c(=O)[nH][nH]c(=O)c3c2c1", "note": "[7-DNH, 7-dimethylamino-naphthalene-1,2-dicarbonic acid-hydrazide]", "values": [
      {"measurement": "S/N for Mb", "setting": "Mb", "result": 316},
      {"measurement": "time of peak emission", "setting": "Hb [1]", "result": 2, "unit": "s"},
      {"measurement": "sensitivity compared to other substrates tested", "setting": "Hb [2]; by signal to noise ratio", "result": "most sensitive"},
      {"measurement": "S/N for Hb", "setting": "Hb [2]; signal integrated over first five seconds", "result": 589}
    ]},
    {"molecule": "CC1COc2c(N3CCN(C)CC3)c(F)cc3c(=O)c(C(=O)O)cn1c23", "note": "(stereo not drawn) [ofloxacin]", "values": [
      {"measurement": "leukocytes kept intact in urine", "setting": "leukocytes", "result": "up to 20 hours"}
    ]},
    {"molecule": "Hemoglobin: human hemoglobin purchased from Sigma", "values": [
      {"measurement": "interference with PS-1 assay", "setting": "MPO [3]", "result": "did not interfere"},
      {"measurement": "Interference", "setting": "MPO [4]", "result": "> 10", "unit": "µg/mL"},
      {"measurement": "stability of Hb in the samples during the reaction", "setting": "Hb [5]", "result": "up to 25 minutes"}
    ]},
    {"molecule": "Mellitin: lysing agent", "values": [
      {"measurement": "effectiveness as lysing agent", "setting": "RBC", "result": "nearly as effective as 0.1% CTAC"}
    ]}
  ]
}
